Measured values reported in patent publication US7659293B2, “α-Amino-N-hydroxy-acetamide derivatives” (Novartis AG, priority 2001, dated 2010).

System: BN472 rat mammary carcinoma
Experiment: Spontaneous metastases model, BN472 rat mammary tumors transplanted orthotopically
Type: in vivo
Conditions: 4 weeks, vehicle control about 230
Description: Tumor fragments of ca. 25 mm^3 are transplanted under the mammary fat pad of female Brown-Norwegian (BN) rats. A compound of formula I is suspended in 1% carboxymethyl cellulose (CMC) in sterile water. The formulations are administered orally at doses of either 30 mg/kg once per day or 15 mg/kg twice per day. Animals in the tumor-bearing control group and the non-tumor-bearing control group (healthy rats) receive vehicle only. Treatment starts after randomization and continues for 4 weeks. Lung metastases are determined after four weeks of treatment by counting the number of lesions visible on the surface of the lungs after fixation in Bouin's fixative. In this model the compounds of formula I at a dose of either 30 mg/kg once per day or 15 mg/kg twice per day produce reductions in the incidence and/or extent of metastases in lungs and regional lymph nodes. The reduction in the median number of lung metastases or weight of regional lymph nodes is between approximately 25% and 70%. For Example, for the compound of Example 3 the median number of lung foci is about 105 for both dosages compared to a median number of about 230 lung foci in the vehicle control group. Based on the increase in body weight and general health, the compounds appear to be well tolerated. […]

## O=C(CN(Cc1ccc(-n2nccn2)cc1)S(=O)(=O)c1ccc(OCC2CC2)cc1)NO [Example 3, [(4-Cyclopropylmethoxy-benzenesulfonyl)-(4-[1,2,3]triazol-2-yl-benzyl)amino]-N-hydroxy-acetamide]
15 mg/kg twice per day orally
  median number of lung foci: about 105
30 mg/kg once per day orally
  median number of lung foci: about 105
